The values below come from patent US8927559B2, “Quinazolinone-type compounds as CRTH2 antagonists” (Merck Sharp & Dohme Corp., priority 2010, dated 2015).

SMILES strings stand for the structures. Where “and” joins values, the source holds several entries; their conditions need not be identical. Equal values may be shown once.

The target of one assay is T1, CRTH2 receptor (hCRTH2) (Homo sapiens, UniProt Q9Y5Y4).
T1 construct: expressed in transfected cells; host or cells: HEK cells (HEK-hCRTH2 cell line), membranes
T1 sequence (Q9Y5Y4 1-395): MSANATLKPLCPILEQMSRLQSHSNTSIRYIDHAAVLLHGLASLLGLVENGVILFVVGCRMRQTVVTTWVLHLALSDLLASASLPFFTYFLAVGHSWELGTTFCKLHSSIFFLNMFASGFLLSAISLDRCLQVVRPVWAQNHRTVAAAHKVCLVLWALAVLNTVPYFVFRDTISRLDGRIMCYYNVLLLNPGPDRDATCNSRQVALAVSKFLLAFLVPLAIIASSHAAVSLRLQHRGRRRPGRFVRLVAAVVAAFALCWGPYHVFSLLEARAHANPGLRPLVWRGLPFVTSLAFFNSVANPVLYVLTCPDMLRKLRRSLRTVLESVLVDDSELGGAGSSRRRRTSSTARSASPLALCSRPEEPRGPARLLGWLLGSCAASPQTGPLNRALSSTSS
As to the kind of experiment: Radioligand binding assay ([3H]PGD2 competition, membranes of HEK-hCRTH2 cell line). The settings on record: 3.0 nM [3H]PGD2, HEK-hCRTH2 membranes, 60 min, room temperature; read-out: Ki. As to the method:
Competing ligands were diluted in dimethylsulfoxide (Me2SO) that was kept constant at 1% (v/v) of the final incubation volume. The reaction was initiated by the addition of 8-20 μg of membrane protein prepared from a HEK-hCRTH2 cell line. Total and non-specific binding were determined in the absence and the presence of […] PGD2, respectively. […] The reaction was routinely conducted for 60 min at room temperature and terminated by rapid filtration through prewetted (0.3% polyethyleneimine) 96-well printed filtermate (Wallac) using a Tomtec harvester. After washing with cold buffer, the filter was dried for 2 minutes in microwave, and Meltilex Scintillator sheet (Wallac) was melted on for 2 min.
As for `O=C(O)CCCCc1nc2cc(-c3cc(-c4ccc(F)cc4)on3)ccc2c(=O)n1-c1ccc(F)cc1` [Example 5N], the Ki is no more than 10 nM. Still for that read-out and setting: the figure for `O=C(O)CCCCc1nc2cc(-c3cc(C(=O)C4CC4)on3)ccc2c(=O)n1-c1ccc(F)cc1` [Example 5Q] is 10 to 50 nM. The same measure, in the same setting: next, `Cc1cc(-c2ccc3c(=O)n(-c4ccc(F)cc4)c(CCCCC(=O)O)nc3c2)no1` [Example 5i]: 10 to 50 nM; `O=C(O)CCCCc1nc2cc(-c3cc(C4CC4)no3)ccc2c(=O)n1-c1ccc(F)cc1` [Example 8C, 5-(7-(3-Cyclopropylisoxazol-5-yl)-3-(4-fluorophenyl)-4-oxo-3,4-dihydroquinazolin-2-yl)pentanoic acid]: 10 to 50 nM. Still for that read-out and setting: the figure for `Cc1cc(-c2ccc3c(=O)n(-c4ccc(F)cc4)c(CCCCC(=O)O)nc3c2)on1` [Example 8D] is no more than 10 nM; for `Cn1cc(-c2ccc3c(=O)n(-c4ccc(F)cc4)c(CCCCC(=O)O)nc3c2)nn1` [Example 9, 5-(3-(4-Fluorophenyl)-7-(1-methyl-1H-1,2,3-triazol-4-yl)-4-oxo-3,4-dihydroquinazolin-2-yl)pentanoic acid] it is no more than 10 nM; for `Cc1cc(-c2ccc3c(=O)n(-c4ccc(C(F)(F)F)cc4)c(CCCCC(=O)O)nc3c2)no1` [Example 13, 5-{7-(5-Methylisoxazol-3-yl)-4-oxo-3-[4-(trifluoromethyl)phenyl]-3,4-dihydroquinazolin-2-yl}pentanoic acid] it is no more than 10 nM.

Turning to `O=C(O)CCCCc1nc2cc(-c3noc(-c4ccncc4)n3)ccc2c(=O)n1-c1ccc(F)cc1` [Example 14, 5-{3-(4-fluorophenyl)-4-oxo-7-[5-(pyridin-4-0)-1,2,4-oxadiazol-3-yl]-3,4-dihydroquinazolin-2-yl}pentanoic acid], the Ki is 10 to 50 nM and 17.2 nM.

Regarding `CC(C)(C)c1ccc(-c2nc(-c3ccc4c(=O)n(-c5ccc(F)cc5)c(CCCCC(=O)O)nc4c3)no2)cc1` [Example 14C], the Ki lay in the range of 10 to 50 nM.

Consider `O=C(O)CCCCc1nc2cc(C3=NOC(c4ccccc4)C3)ccc2c(=O)n1-c1ccc(F)cc1` (centres unmarked) [Example 15, 5-(3-(4-fluorophenyl)-4-oxo-7-(5-phenyl-4,5-dihydroisoxazol-3-yl)-3,4-dihydroquinazolin-2-yl)pentanoic acid], for which the Ki lay in the range of 10 to 50 nM. Same read-out and setting: next, `O=C(O)CCCCc1nc2cc(C3=NOC(c4ccccn4)C3)ccc2c(=O)n1-c1ccc(F)cc1` (centres unmarked) [Example 15G]: 10 to 50 nM; `O=C(O)CCCCc1nc2cc(C3=NOC(c4ccncc4)C3)ccc2c(=O)n1-c1ccc(F)cc1` (centres unmarked) [Example 15H]: 10 to 50 nM; `O=C(O)CCCCc1nc2cc(C3=NOC(c4ccccc4)C3)ccc2c(=O)n1-c1ccc(Cl)cc1` (centres unmarked) [Example 15K]: no more than 10 nM. Same read-out and setting: next, `O=C(O)CCCCc1nc2cc(C3=NOC(c4ccccn4)C3)ccc2c(=O)n1-c1ccc(Cl)cc1` (centres unmarked) [Example 15L]: no more than 10 nM; `O=C(O)CCCCc1nc2cc(C3=NOC(c4ccncc4)C3)ccc2c(=O)n1-c1ccc(Cl)cc1` (centres unmarked) [Example 15M]: no more than 10 nM; `COc1cccc(C2CC(c3ccc4c(=O)n(-c5ccc(F)cc5)c(CCCCC(=O)O)nc4c3)=NO2)c1` (centres unmarked) [Example 15N]: no more than 10 nM. On the same count and under the same terms, next, `O=C(O)CCCCc1nc2cc(C3=NOC(c4cccc(Cl)c4)C3)ccc2c(=O)n1-c1ccc(F)cc1` (centres unmarked) [Example 15P]: no more than 10 nM; `N#Cc1ccc(C2CC(c3ccc4c(=O)n(-c5ccc(F)cc5)c(CCCCC(=O)O)nc4c3)=NO2)cc1` (centres unmarked) [Example 15Q]: no more than 10 nM; `CC(C)(C)OC(=O)N1CCC2(CC1)CC(c1ccc3c(=O)n(-c4ccc(Cl)cc4)c(CCCCC(=O)O)nc3c1)=NO2` [Example 15T]: no more than 10 nM. On to `CC(=O)N1CCC2(CC1)CC(c1ccc3c(=O)n(-c4ccc(Cl)cc4)c(CCCCC(=O)O)nc3c1)=NO2` [Example 15U], for which the Ki is 10 to 50 nM. On the same count and under the same terms, the figure for `COCC1(c2ccccc2)CC(c2ccc3c(=O)n(-c4ccc(F)cc4)c(CCCCC(=O)O)nc3c2)=NO1` (centres unmarked) [Example 15V] is 10 to 50 nM; for `COCC1(c2ccccc2)CC(c2ccc3c(=O)n(-c4ccc(Cl)cc4)c(CCCCC(=O)O)nc3c2)=NO1` (centres unmarked) [Example 15W] it is 10 to 50 nM; for `O=C(O)CCCCc1nc2cc(C3=NOC4(CCCCC4)C3)ccc2c(=O)n1-c1ccc(F)cc1` [Example 15X] it is no more than 10 nM. Same read-out and setting: next, `O=C(O)CCCCc1nc2cc(C3=NOC4(CCCCC4)C3)ccc2c(=O)n1-c1ccc(Cl)cc1` [Example 15Y]: no more than 10 nM.

In the case of `N#CC1CC2(CC(c3ccc4c(=O)n(-c5ccc(Cl)cc5)c(CCCCC(=O)O)nc4c3)=NO2)C1` (centres unmarked) [Example 15Z], the Ki was no more than 10 nM.

As to `CC1(c2ccccc2)CC(c2ccc3c(=O)n(-c4ccc(Cl)cc4)c(CCCCC(=O)O)nc3c2)=NO1` (centres unmarked) [Example 15i], the Ki is no more than 10 nM. Same read-out and setting: next, `COc1cccc(C2CC(c3ccc4c(=O)n(-c5ccc(Cl)cc5)c(CCCCC(=O)O)nc4c3)=NO2)c1` (centres unmarked) [Example 15o]: no more than 10 nM; `O=C(O)CCCCc1nc2cc(-c3cn(Cc4ccccc4)nn3)ccc2c(=O)n1-c1ccc(F)cc1` [Example 17, 5-[7-(1-benzyl-1H-1,2,3-triazol-4-yl)-3-(4-fluorophenyl)-4-oxo-3,4-dihydroquinazolin-2-yl]pentanoic acid]: no more than 10 nM. In the case of `O=C(O)CCCCc1nc2cc(-c3c[nH]nn3)ccc2c(=O)n1-c1ccc(F)cc1` [Example 18, 5-[3-(4-fluorophenyl)-4-oxo-7-(1H-1,2,3-triazol-4-yl)-3,4-dihydroquinazolin-2-yl]pentanoic acid], the Ki was in the range of 10 to 50 nM. Regarding `O=C(O)CCCCc1nc2cc(-c3cn(Cc4ccc(F)cc4)nn3)ccc2c(=O)n1-c1ccc(F)cc1` [Example 19, 5-{7-[1-(4-fluorobenzyl)-1H-1,2,3-triazol-4-yl]-3-(4-fluorophenyl)-4-oxo-3,4-dihydroquinazolin-2-yl}pentanoic acid], the Ki was no more than 10 nM. For `CS(=O)(=O)c1ccc(Cn2cc(-c3ccc4c(=O)n(-c5ccc(F)cc5)c(CCCCC(=O)O)nc4c3)nn2)cc1` [Example 19D], the Ki was ≤ 10 nM and 1.2 nM. Same read-out and setting: next, `O=C(O)CCCCc1nc2cc(-c3cn(-c4cccnc4)nn3)ccc2c(=O)n1-c1ccc(F)cc1` [Example 20, 5-{3-(4-fluorophenyl)-4-oxo-7-[1-(pyridin-3-yl)-1H-1,2,3-triazol-4-yl]-3,4-dihydroquinazolin-2-yl}pentanoic acid]: no more than 10 nM. Still for that read-out and setting: next, `O=C(O)CCCCc1nc2cc(-n3cc(C4CC4)nn3)ccc2c(=O)n1-c1ccc(F)cc1` [Example 21, 5-[7-(4-cyclopropyl-1H-1,2,3-triazol-1-yl)-3-(4-fluorophenyl)-4-oxo-3,4-dihydroquinazolin-2-yl]pentanoic acid]: no more than 10 nM; `CC(C)(O)c1cn(-c2ccc3c(=O)n(-c4ccc(F)cc4)c(CCCCC(=O)O)nc3c2)nn1` [Example 21C]: 10 to 50 nM; `O=C(O)CCCCc1nc2cc(-n3cc(-c4ccccc4)nn3)ccc2c(=O)n1-c1ccc(F)cc1` [Example 21D]: no more than 10 nM. Still for that read-out and setting: next, `O=C(O)CCCCc1nc2cc(-n3cc(Cc4ccccc4)nn3)ccc2c(=O)n1-c1ccc(F)cc1` [Example 21E]: no more than 10 nM.

The same assay, now with this note: Ki, 3.0 nM [3H]PGD2, HEK-hCRTH2 membranes, 60 min, room temperature.
As to `CC1(c2ccccc2)CC(c2ccc3c(=O)n(-c4ccc(F)cc4)c(CCCCC(=O)O)nc3c2)=NO1` (centres unmarked) [Example 15E], the Ki fell in the range of 10 to 50 nM.

Consider `CC1(c2ccccc2)CC(c2ccc3c(=O)n(-c4ccc(F)cc4)c(CCCCC(=O)O)nc3c2)=NO1` (centres unmarked) [Example 15F], for which the Ki is no more than 10 nM.

Broadly, the Ki is the equilibrium dissociation constant of an inhibitor or competing ligand from its target.
